This note sets out measurements from patent publication US20240374631A1, “A COMPOSITION FOR IMPROVING GUT MICROBIOTA, BEHAVIOURAL PATTERN, ALPHA-SYNUCLEIN LEVELS, SLEEP PATTERN AND/OR SERUM MELATONIN” (GN Corporation Co Ltd, priority 2021, published 2024).

The test deals with α-synuclein on the neuroblastoma cell line (SHSY-5Y Tet-On: SCC291). Briefly: Expression of α-synuclein on neuroblastoma cell line stimulated with beta-glucan or PMA (glutaraldehyde-fixed cellular ELISA, 3 days). It counts as cell-based. To be noted: BG-AF202 50 μg/mL, PMA 500 ng/mL. The protocol: Neuroblastoma cell line (SHSY-5Y Tet-On: SCC291) (MERCK) was suspended in 10% FCS-DMEM/F12 medium and seeded into 96-well microplates to achieve a cell count of 5×10^4 cells/well. After 24 hours of incubation, the cells were washed with 10% FCS-DMEM/F12 medium and new 10% FCS-DMEM/F12 medium was added.
Then, β-glucan AFO-202 (50 μg/mL) and PMA (500 ng/mL) (Sigma) were added to the medium, and the cells were cultured for 1 to 3 days. After incubation, the wells were washed three times with PBS and fixed in 0.25% glutaraldehyde-PBS for 1 hour at room temperature. After fixation, the wells were washed three times with PBS-0.05% Tween (PBS-T). After washing the wells with PBS-T, 50 μL of 500-fold diluted α-synuclein polyclonal rabbit antibody (proteintech Co. 10842-1-AP) was added to the wells and incubated at room temperature for 1 h. Then, 2% BSA-PBS-T was added and left for 1 h (to block non-specific reactions).
After 1 hour, the wells were washed with PBS-T and 50 μL of biotin-labeled anti-rabbit IgG antibody (Cosmo Bio) diluted 5,000-fold was added to the wells and the reaction was carried out for 40 minutes at room temperature. […]
After that, the absorbance (OD value) was measured with a microplate reader (450 nm) (Tosoh). Data were expressed as […] value (sample OD value−blank OD value). The expression rate was calculated based on the control (None). […]
Background: ELISA stands for enzyme-linked immunosorbent assay.

With `CCCCCCCCCCCCCC(=O)O[C@@H]1[C@@H](C)[C@@]2(O)[C@@H](C=C(CO)C[C@]3(O)C(=O)C(C)=C[C@@H]23)[C@@H]2C(C)(C)[C@]12OC(C)=O` [PMA], the “α-synuclein expression (%) vs. None” value came to 50.1%. Under “None 0.281”, the δOD value is 0.166.
